# Values joined by “and” are separate entries in the source; they are usually repeats but may differ in a detail not shown here. Equal entries are not always repeated. Ends that are not written are not given here.
# Experiments:
# [1] = tested on: HLA B27; assay: Peptide-induced thermostabilization of HLA B27 on Drosophila cells (W6/32 cytofluorimetry); format: cell-based, human
# Description: Twenty-four hours prior to FACS analysis, CuSO4 is added to the stably transfected S2 cells (3-4×10^6 cells/ml) to a final concentration of 1 mM, thereby “switching on” expression from the transfected genes. Cells are plated out in 24-well cluster dishes (2 ml per well). Eight hours prior to FACS analysis, the CuSO4 medium is replaced with fresh medium (1 ml) with or without peptide at a concentration of 50 μg/ml. 37° C. temperature challenges are carried out by transferring the dishes onto a flat surface in a 37° C. room at various time intervals prior to harvesting the cells for analysis.
# To analyze surface expression of Class I MHC on the S2 cells, aliquots of cells (5×10^5) are transferred into tubes on ice, collected by centrifugation (1,000×g for 4 minutes), resuspended in 3 ml of PBS/1% BSA, 0.02% sodium azide, collected by centrifugation and resuspended in PBS/BSA (0.5 ml) containing the appropriate primary antibody (ascites fluids Y3, 28:14:8S, 30.5.7, W6/32, diluted 1:200). Rabbit antisera are diluted 1:500 and B22.293 hybridoma supernatant is used directly. After a one hour incubation on ice, cells are washed twice in 3 ml of PBS/BSA and resuspended in 0.5 ml of PBS/BSA containing FITC labeled secondary antibody (Cappell, Durham, N.C.) and 1 ng/ml propidium iodide. […] Samples are then analyzed by FACS 440 (Becton Dickinson). […]
# [2] = target: L^d molecules complexed with QL9 peptide, on the cell surface (mouse) (UniProt P01887)
# Sequence of L^d molecules complexed with QL9 peptide, on the cell surface (mouse) (P01897 25-362, one chain of several): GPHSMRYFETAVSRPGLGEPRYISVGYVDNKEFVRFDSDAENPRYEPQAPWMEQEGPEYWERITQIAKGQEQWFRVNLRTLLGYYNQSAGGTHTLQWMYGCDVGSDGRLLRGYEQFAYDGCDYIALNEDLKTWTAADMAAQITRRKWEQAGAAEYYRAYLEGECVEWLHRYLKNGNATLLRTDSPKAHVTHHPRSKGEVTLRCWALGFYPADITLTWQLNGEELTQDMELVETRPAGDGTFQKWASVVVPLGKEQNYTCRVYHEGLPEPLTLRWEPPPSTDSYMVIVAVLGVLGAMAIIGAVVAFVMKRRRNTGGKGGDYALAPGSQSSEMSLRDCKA
# [3] = target: recombinant biotinylated L^d immobilized on an avidin-coated support, with QL9 peptide (mouse) (UniProt P01897)
# Sequence of recombinant biotinylated L^d immobilized on an avidin-coated support, with QL9 peptide (mouse) (P01897 25-309): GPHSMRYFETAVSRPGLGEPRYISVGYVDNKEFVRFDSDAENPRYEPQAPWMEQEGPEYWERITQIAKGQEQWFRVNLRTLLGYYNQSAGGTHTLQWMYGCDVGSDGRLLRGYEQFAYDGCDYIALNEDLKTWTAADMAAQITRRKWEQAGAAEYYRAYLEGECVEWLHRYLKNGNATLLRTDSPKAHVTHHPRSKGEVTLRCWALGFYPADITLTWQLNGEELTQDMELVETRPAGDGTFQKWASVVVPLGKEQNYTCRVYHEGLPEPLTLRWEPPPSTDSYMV
# [4] = target: L^d molecules complexed with QL9 peptide, on the cell surface (mouse) (UniProt P01887); assay: cell-based or functional assay
# [5] = target: L^d molecules complexed with p2Ca peptide, on transfected Drosophila S2 cells (mouse) (UniProt P01887); assay: cell-based or functional assay
# Sequence of L^d molecules complexed with p2Ca peptide, on transfected Drosophila S2 cells (mouse) (P01897 25-362, one chain of several): as the sequence (P01897 25-362, one chain of several) above
# [6] = tested on: B3/CD8 T-cell hybridoma; assay: Antigen presentation assay with B3/CD8 T-cell hybridoma (IL-2 via CTLL 3H thymidine); format: cell-based, murine; conditions: peptide added to culture medium or protein osmotically loaded
# Description: Osmotic loading of SC2 and 3T3 cells with ovalbumin protein was carried out as described by Moore, et al., Cell 54: 777-785 (1988). The assay procedure is as follows. In a 96-well dish, 1×10^5 Drosophila cells (with or without peptide/protein loaded) or 3T3 cells were cocultured with 1×10^5 B3/CD8 T-cell hybridoma cells in 200 μl of RPMI media supplemented with 10% fetal bovine serum. After 24 hours of incubation, 100 μl of the supernatant from these cultures was added to 100 μl of RPMI containing 5,000 CTLL cells. The cells were cocultured for 24 hours at 37° C. when 1 uCi of ^3H thymidine (Amersham) was added. After a further incubation of 15 hours at 37° C., the incorporation of radiolabel into the CTLL cells was determined by scintillation counting.
# Assays conducted with murine MHC also verified that the insect cells are capable of loading peptide onto the Class I molecules. Cells expressing as few as 200-500 MHC molecules containing a particular antigen can be detected by a T-cell. […] Upon antigenic stimulation, B3/CD8 produces IL-2, measured by ^3H thymidine incorporation in IL-2-dependent T-cell line CTLL (Gillis, et al., J. Immunol. 120: 2027 91978)). Thus, by measuring the amount of IL-2 produced, one can assay for T-cell recognition. […]
# [7] = target: T1, K^bsol (soluble H-2 K^b with murine β-2 microglobulin) (Mus musculus, UniProt P01901); format: binding
# T1 construct: The cDNAs encoding K^b α1α2α3 domains (274 residues) and murine β-2 microglobulin (99 residues); made in house; host or cells: Drosophila S2/M3 cells, purified from culture supernatant
# T1 sequence (P01901 22-295): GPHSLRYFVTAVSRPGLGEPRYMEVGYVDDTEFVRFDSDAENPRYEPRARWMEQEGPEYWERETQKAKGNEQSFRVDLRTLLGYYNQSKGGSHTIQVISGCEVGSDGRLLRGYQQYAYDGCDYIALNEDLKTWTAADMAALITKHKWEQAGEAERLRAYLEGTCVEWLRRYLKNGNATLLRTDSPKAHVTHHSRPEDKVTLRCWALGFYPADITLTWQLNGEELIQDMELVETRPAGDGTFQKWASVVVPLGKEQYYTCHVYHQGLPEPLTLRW
# T1 sequence (P01887 21-119 partner): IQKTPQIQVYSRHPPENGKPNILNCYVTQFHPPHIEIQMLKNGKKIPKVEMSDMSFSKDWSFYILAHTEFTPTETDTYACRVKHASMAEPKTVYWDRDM
# [8] = tested on: CD8^+ 2C lymph node cells; assay: Primary proliferative response of CD8+ 2C lymph node cells to peptides presented by transfected fly cells (3HTdR); format: cell-based, mouse; conditions: peptide 10 μM
# Description: (§1) Using a standard tissue culture system (Cai, Z. and Sprent, J. (1994) J. Exp. Med. 179: 2005-2015), doses of 5×10^4 purified CD8^+ 2C lymph node (LN) cells were cultured at 37° C. with doses of 3×10^5 transfected fly cells ±peptides (10 μM final concentration). Peptides were synthesized by R. W. Johnson Pharmaceutical Research Institute (Sykulev, et al. (1994) Immunity 1: 15-22. Proliferative responses were measured by adding ^3HTdR (1 μCi/well) 8 hours prior to harvest. IL-2 production was measured by removing supernatants from the cultures at 48 hours and adding 50 μl supernatant to an IL-2 responsive indicator cell line (CTLL); proliferation of the indicator line was measured by addition of ^3HTdR. The data shown in Table 2 are the means of triplicate cultures. The transfected Drosophila S2 cells die rapidly at 37° C. and fail to incorporate ^3HTdR at this temperature.
# [9] = tested on: CD8^+ 2C lymph node cells; assay: IL-2 production by CD8+ 2C lymph node cells (CTLL indicator line 3HTdR); format: cell-based, mouse; conditions: peptide 10 μM
# Description: as §1
# [10] = tested on: CD8^+ 2C cells; assay: CD69 and CD25 expression on CD8+ 2C cells stimulated with transfected Drosophila cells plus peptide; format: cell-based, mouse; conditions: Drosophila cells expressing L^d alone; peptide 10 μM, 12 hours
# Description: TCR stimulation elicited a complex pattern of intracellular events which lead to early up-regulation of CD69 and CD25 (IL-2 receptor or IL-2R) on the cell surface. These changes are apparent within a few hours of stimulation and are followed by cytokine synthesis and cell proliferation. Drosophila cells were transfected with genes for L^d, L^d and B7.1 (L^d.B7), L^d and ICAM-1 (L^d.ICAM) or L^d, B7.1 and ICAM-1 (L^d.B7.1CAM). […] Purified CD8^+ 2C cells were incubated with various Drosophila cells plus a peptide (either p2Ca or QL9, 10 μM) in bulk (2 ml) culture for 12 hours and then stained for CD69 or CD25. Either p2Ca or QL9 presented by Drosophila cells transfected with L^d.B7, L^d.ICAM or L^d.B7.1CAM were effective in stimulating the up-regulation of CD69 and CD25.
# [11] = tested on: CD8^+ 2C cells; assay: Dose-response of day 3 proliferation of CD8+ 2C cells to peptides on transfected Drosophila APC; format: cell-based, mouse
# Description: Responses to p2Ca (above) and QL9 (below) were measured by culturing 5×10^4 purified CD8^+ 2C cells with 2×10^5 Drosophila cells in the presence or absence of the indicated concentrations of peptides for 3 days. [^3H] TdR was added during the last 8 hours of culture; rIL-2 was added at a final concentration of 20 units/ml. The data are the mean of triplicate cultures. When supplemented with exogenous IL-2, however, both peptides stimulated significant proliferative responses at high doses (10 μM). The proliferative responses elicited by QL9 were far stronger than for p2Ca (note the large difference between the scales of x-axes of the upper and the lower panel).
# Dose-response relationships for proliferation on day 3 elicited by Drosophila cells transfected with L^d.B7.1CAM and presenting p2Ca peptide were compared to those elicited by Drosophila cells transfected with L^d.B7, L^d.ICAM or L^d.B7.1CAM presenting QL9 peptide. Drosophila APC (2×10^5 cells) were cultured with 5×10^4 CD8^+ 2C cells for three days in the presence or absence of peptides. [^3H] TdR was added during the last 8 hours of culture; no IL-2 was added to the cultures.
# [12] = tested on: 2C+ T-cells; format: cell-based, mouse
# [13] = tested on: 2C+ T-cells; assay: Enrichment of 2C+ T-cells from a 1/99 mixture with C57BL/6 CD8+ cells (1B2 staining, flow cytofluorometry); format: cell-based, mouse
# Description: 2C+ T-cells were mixed with total CD8^+ cells from C57BL/6 mice at a 1/99 ratio and cells were cultured with immobilized L^d and anti-CD28 antibody in the presence of peptide QL9. IL-2 was added at day 2 of culture, and subsequently every other day. Cell activation and proliferation was noted, as evidenced by the formation of clumps, presence of enlarged cells that progressively spread in the well. At day 12 of culture, cells were harvested and percentage of cells expressing the 2C T-cell receptor was assessed by staining with the anticlonotypic antibody 1B2 and analysis by flow cytofluorometry: 43% of the cells cultured initially in the presence of peptide QL9 were 2C+, (FIG. 22) whereas 49% of the cells expressed 2C after stimulation with peptide p2Ca (FIG. 23), and 22% with peptide SL9 (FIG. 24). […] Enrichment was observed even with SL9, a peptide that makes a low affinity complex with the 2C T-cell receptor. This method thus can specifically activate and enrich a small subpopulation of antigen specific T-cells out of a heterogenous mixture of T-cells.
# [14] = target: T2, soluble H-2 K^b (K^bsol): heterodimer of truncated K^b heavy chain and murine β-2 microglobulin, purified from Drosophila cells (murine), P01901
# T2 chain 1: T1 sequence (P01901 22-295)
# T2 chain 2: T1 sequence (P01887 21-119 partner)
molecule,measurement,setting,value
FRIGCRHSR [HIV Vpr peptide],thermostabilization of HLA B27 surface expression,[1],stabilizes B27
2C T-cell receptor on T-cells of 2C TCR transgenic mice,percent of the lymphocytes included in rosettes,[2],30% and 40%
same,percent of the lymphocytes included in rosettes,[3],30% and 40%
same,"Proliferation (Day 3), ^3HTdR incorporation; fly cells expressing L^d",[4],200 cpm
same,"Proliferation (Day 3), ^3HTdR incorporation; fly cells expressing L^d + B7.1",[4],60900 cpm
same,"Proliferation (Day 3), ^3HTdR incorporation; fly cells expressing L^d + ICAM-1",[4],73900 cpm
same,"Proliferation (Day 3), ^3HTdR incorporation; fly cells expressing L^d",[5],200 cpm
same,"Proliferation (Day 3), ^3HTdR incorporation; fly cells expressing L^d + B7.1",[5],300 cpm
same,"Proliferation (Day 3), ^3HTdR incorporation; fly cells expressing L^d + ICAM-1",[5],1500 cpm
ILKEPVHGV [HIV POL peptide],thermostabilization of HLA B27 surface expression,[1],not B27
ovalbumin protein: ovalbumin (Sigma Chem. Co.) osmotically loaded into the cells (EQLESIINFEKLTEWTSSNVMEER),T-cell recognition (IL-2 response) of K^b Drosophila cells,[6],no recognition
EQLESIINFEKLTEWTSSNVMEER [OVA-24],affinity lower than that of OVA-8,[7],"more than 10,000 fold"
same,T-cell recognition (IL-2 response) of K^b Drosophila cells,[6],responded well
LSPFPFDL [p2Ca],"Proliferation (Day 3) ^3HTdR incorporation, fly cells expressing L^d",[8]; APC L^d,0.2 cpm × 10^3
same,"Proliferation (Day 3) ^3HTdR incorporation, fly cells expressing L^d + B7.1",[8]; APC L^d + B7.1,0.3 cpm × 10^3
same,"Proliferation (Day 3) ^3HTdR incorporation, fly cells expressing L^d + B7.1 + ICAM-1",[8]; APC L^d + B7.1 + ICAM-1,142.0 cpm × 10^3
same,"Proliferation (Day 3) ^3HTdR incorporation, fly cells expressing L^d + ICAM-1",[8]; APC L^d + ICAM-1,1.5 cpm × 10^3
same,"Proliferation (Day 3) ^3HTdR incorporation, L^d + B7.1 combined with L^d + ICAM-1",[8]; mixture of two APC lines,1.5 cpm × 10^3
same,"IL-2 Production (Day 2) ^3HTdR incorporation, fly cells expressing L^d",[9]; APC L^d,0.2 cpm × 10^3
same,"IL-2 Production (Day 2) ^3HTdR incorporation, fly cells expressing L^d + B7.1",[9]; APC L^d + B7.1,0.2 cpm × 10^3
same,"IL-2 Production (Day 2) ^3HTdR incorporation, fly cells expressing L^d + B7.1 + ICAM-1",[9]; APC L^d + B7.1 + ICAM-1,64.6 cpm × 10^3
same,"IL-2 Production (Day 2) ^3HTdR incorporation, fly cells expressing L^d + ICAM-1",[9]; APC L^d + ICAM-1,0.1 cpm × 10^3
same,"IL-2 Production (Day 2) ^3HTdR incorporation, L^d + B7.1 combined with L^d + ICAM-1",[9]; mixture of two APC lines,0.3 cpm × 10^3
same,induction of CD69 and CD25 expression,[10],barely detectable
same,proliferation of 2C CD8+ cells,"[11]; Drosophila cells with L^d alone, no exogenous lymphokines",failed
same,peptide concentration required for optimal day 3 proliferative response,"[11]; L^d.B7.1CAM APC, no IL-2",10 µM
same,activation (mitogenesis) of 2C+ T-cells,[12],able to activate
same,enrichment in specific T-cells after 12 days,[13]; start 1/99,49 times
same,cells expressing the 2C T-cell receptor (2C+) at day 12,"[13]; start 1/99 2C+/total CD8+, immobilized L^d and anti-CD28, IL-2 from day 2",49%
RGYVYQGL (modifications not checked) [[^125I]VSV-8 (radioiodinated VSV-8 peptide)],percent of the total labeled peptide able to bind,[14],65%

# Source: patent US20030138946A1
